Test results from PMC9085577, “Discovery of a Potent and Orally Active Dual GPBAR1/CysLT1R Modulator for the Treatment of Metabolic Fatty Liver Disease” (Frontiers in Pharmacology, 2022).

Test system: liver transcriptome
Experiment: AmpliSeq liver transcriptome of HFD-F mice
Type: in vivo
Details: liver
From the text: C57BL/6J male mice were fed a high fat diet (HFD) containing 59 KJ% fat plus 1% cholesterol, w/o sugar (ssniff ® EF R/M acc. D12330 mod. 22,7 ME/kg) and fructose (HFD-F) in drinking water (42 g/L), or normal chow diet for 61 days. Food intake was estimated as the difference of weight between the offered and the remnant amount of food at 3-days intervals. The food was provided as pressed pellets and the residual spillage was not considered. After 7 days, HFD-F mice were randomized to receive HFD-F alone or in combination with compound 2 (30 mg/kg/day) by gavage until the end of the experiment. Doses of each agent were chosen according to previously published data. Mice were housed under controlled temperature (22°C) and photoperiods (12:12-h light/dark cycle), allowed unrestricted access to standard mouse chow and tap water. The experimental protocol was approved by the Animal Care and Use Committee of the University of Perugia and by the Italian Minister of Health and Istituto Superiore di Sanità (Italy) and was in agreement with the European guidelines for use of experimental animals (permission n. 583/2017-PR). The general health of the animals was monitored daily by the Veterinarian in the animal facility. At the day of sacrifice, fed mice were deeply anesthetized with a mixture of tiletamine hypochloride and zolazepam hypochloride/xylazine at a dose of 50/5 mg/kg and sacrificed before 12 a.m.
High-quality RNA was extracted from mice livers, using the Direct-zol™ RNA MiniPrep w/Zymo-Spin™ IIC Columns (Zymo Research, Irvine, CA) according to the manufacturer’s instructions. RNA quality and quantity were assessed with the Qubit® RNA HS Assay Kit and a Qubit 3.0 fluorometer (Invitrogen, Carlsbad, CA) followed by agarose gel electrophoresis. Libraries were generated using the Ion AmpliSeq™ Transcriptome Mouse Gene Expression Core Panel and Chef-Ready Kit (Comprehensive evaluation of AmpliSeq transcriptome, a whole transcriptome RNA sequencing methodology) (Thermo Fisher Scientific, Waltham, MA). Briefly, 10 ng of RNA was reverse transcribed with SuperScript™ Vilo™ cDNA Synthesis Kit (Thermo Fisher Scientific, Waltham, MA) before library preparation on the Ion Chef™ instrument (Thermo Fisher Scientific, Waltham, MA). The resulting cDNA was amplified to prepare barcoded libraries using the Ion Code™ PCR Plate, and the Ion AmpliSeq™ Transcriptome Mouse Gene Expression Core Panel (Thermo Fisher Scientific, Waltham, MA), Chef-Ready Kit, according to the manufacturer’s instructions. Barcoded libraries were combined to a final concentration of 100 p.m., and used to prepare Template-Positive Ion Sphere™ (Thermo Fisher Scientific, Waltham, MA) Particles to load on Ion 540™ Chips, using the Ion 540™ Kit-Chef (Thermo Fisher Scientific, Waltham, MA). Sequencing was performed on an Ion S5™ Sequencer with Torrent Suite™ Software v6 (Thermo Fisher Scientific, Waltham, MA). The analyses were performed with a range of fold <−2 and >+2 and a p value <0.05, using Transcriptome Analysis Console Software (version 4.0.1), certified for AmpliSeq analysis (Thermo-Fisher). The transcriptomic data have been deposited as dataset on Mendeley data repository (reference number linking to the repository: Fiorucci, Stefano; Biagioli, Michele; Marchianò, Silvia; Di Giorgio, Cristina (2021), “Discovery of potent dual GPBAR1/CysLT1R modulator for the treatment of metabolic fatty liver disease,” Mendeley Data, V1, doi: 10.17632/6dnrk9fc72.1).

How did the “Gdf15 transcript Avg (log2)” value (HFD + compound 2) turn out when `O=C(O)c1cccc(-c2ccc(OCc3ccc4ccccc4n3)cc2)c1` [Compound 2, 4'-(quinolin-2-ylmethoxy)-[1,1′-biphenyl]-3-carboxylic acid] was run?
Its value is 3.91 log2.

And the “Glipr1 transcript Avg (log2)” value (HFD + compound 2)?
The value was 0.71 log2.

And the “Glipr2 transcript Avg (log2)” value (HFD + compound 2)?
The value was 1.26 log2.

What about the “Gm16063 transcript Avg (log2)” value (HFD + compound 2) of the same compound?
The value was 1.79 log2.

And the “Gm30692 transcript Avg (log2)” value (HFD + compound 2)?
Its value is 0.5 log2.

And the “Gm31555 transcript Avg (log2)” value (HFD + compound 2)?
The value was 1.31 log2.

And the “Gm31649 transcript Avg (log2)” value (HFD + compound 2)?
Its value is 2.75 log2.

And the “Gm36796 transcript Avg (log2)” value (HFD + compound 2)?
Its value is 1.53 log2.

And the “Gnat1 transcript Avg (log2)” value (HFD + compound 2)?
Its value is 3.01 log2.

What about the “Gngt1 transcript Avg (log2)” value (HFD + compound 2) of the same compound?
The value was 1.67 log2.

What about the “Gpnmb transcript Avg (log2)” value (HFD + compound 2) of the same compound?
Its value is 0.3 log2.

What about the “Hnf4aos transcript Avg (log2)” value (HFD + compound 2) of the same compound?
Its value is 3.75 log2.

What about the “Hnrnpa0 transcript Avg (log2)” value (HFD + compound 2) of the same compound?
The value was 2.3 log2.

What about the “Hspa5 transcript Avg (log2)” value (HFD + compound 2) of the same compound?
The value was 8.51 log2.

What about the “Igip transcript Avg (log2)” value (HFD + compound 2) of the same compound?
The value was 2.38 log2.

And the “Il1b transcript Avg (log2)” value (HFD + compound 2)?
The value was 1.8 log2.

What about the “Il1rn transcript Avg (log2)” value (HFD + compound 2) of the same compound?
The value was 1.01 log2.

What about the “Insig2 transcript Avg (log2)” value (HFD + compound 2) of the same compound?
Its value is 5.39 log2.

And the “Itgam transcript Avg (log2)” value (HFD + compound 2)?
Its value is 0.58 log2.

And the “Kif20a transcript Avg (log2)” value (HFD + compound 2)?
The value was 1.39 log2.

What about the “LOC108167447 transcript Avg (log2)” value (HFD + compound 2) of the same compound?
The value was 2.05 log2.

And the “LOC108168323 transcript Avg (log2)” value (HFD + compound 2)?
The value was 1.86 log2.

What about the “Lactb2 transcript Avg (log2)” value (HFD + compound 2) of the same compound?
Its value is 3.85 log2.

What about the “Ly6d transcript Avg (log2)” value (HFD + compound 2) of the same compound?
Its value is 1.72 log2.

And the “Meg3 transcript Avg (log2)” value (HFD + compound 2)?
Its value is 4.04 log2.

And the “Mettl9 transcript Avg (log2)” value (HFD + compound 2)?
Its value is 4.9 log2.

And the “Mki67 transcript Avg (log2)” value (HFD + compound 2)?
Its value is 1.5 log2.

And the “Mogat1 transcript Avg (log2)” value (HFD + compound 2)?
Its value is 2.35 log2.

What about the “Mthfd2 transcript Avg (log2)” value (HFD + compound 2) of the same compound?
The value was 1.97 log2.

What about the “Mvd transcript Avg (log2)” value (HFD + compound 2) of the same compound?
The value was 1.98 log2.

And the “Nat8 transcript Avg (log2)” value (HFD + compound 2)?
The value was 3.26 log2.

And the “Neat1 transcript Avg (log2)” value (HFD + compound 2)?
Its value is 7.09 log2.

And the “Npas2 transcript Avg (log2)” value (HFD + compound 2)?
Its value is 0.62 log2.

What about the “Nr4a1 transcript Avg (log2)” value (HFD + compound 2) of the same compound?
Its value is 3.27 log2.

And the “Nrep transcript Avg (log2)” value (HFD + compound 2)?
The value was 6.14 log2.

And the “Nuak2 transcript Avg (log2)” value (HFD + compound 2)?
Its value is 5.66 log2.

What about the “Pcbp1 transcript Avg (log2)” value (HFD + compound 2) of the same compound?
The value was 2.29 log2.

What about the “Pcp4l1 transcript Avg (log2)” value (HFD + compound 2) of the same compound?
Its value is 3.46 log2.

And the “Pdilt transcript Avg (log2)” value (HFD + compound 2)?
Its value is 4.25 log2.

What about the “Pdpn transcript Avg (log2)” value (HFD + compound 2) of the same compound?
The value was 0.96 log2.

What about the “Per3 transcript Avg (log2)” value (HFD + compound 2) of the same compound?
Its value is 5.27 log2.

And the “Plau transcript Avg (log2)” value (HFD + compound 2)?
Its value is 1.27 log2.

What about the “Plaur transcript Avg (log2)” value (HFD + compound 2) of the same compound?
The value was 1.66 log2.

And the “Pld6 transcript Avg (log2)” value (HFD + compound 2)?
The value was 4.01 log2.

And the “Plekhg3 transcript Avg (log2)” value (HFD + compound 2)?
The value was 6.24 log2.

What about the “Plxnc1 transcript Avg (log2)” value (HFD + compound 2) of the same compound?
The value was 2.12 log2.

And the “Pnpla3 transcript Avg (log2)” value (HFD + compound 2)?
Its value is 4 log2.

What about the “Podn transcript Avg (log2)” value (HFD + compound 2) of the same compound?
The value was 3.56 log2.

What about the “Ppp1r3c transcript Avg (log2)” value (HFD + compound 2) of the same compound?
The value was 4.08 log2.

What about the “Prox1 transcript Avg (log2)” value (HFD + compound 2) of the same compound?
The value was 7.62 log2.

And the “Psat1 transcript Avg (log2)” value (HFD + compound 2)?
The value was 0.72 log2.

And the “Ptgs2 transcript Avg (log2)” value (HFD + compound 2)?
The value was 0.21 log2.

What about the “Raet1e transcript Avg (log2)” value (HFD + compound 2) of the same compound?
Its value is 1.49 log2.

What about the “Raet1d transcript Avg (log2)” value (HFD + compound 2) of the same compound?
Its value is 2.83 log2.

What about the “Ralbp1 transcript Avg (log2)” value (HFD + compound 2) of the same compound?
Its value is 3.21 log2.

And the “Rhob transcript Avg (log2)” value (HFD + compound 2)?
The value was 3.81 log2.

And the “Rrs1 transcript Avg (log2)” value (HFD + compound 2)?
The value was 1.59 log2.

What about the “Saa4 transcript Avg (log2)” value (HFD + compound 2) of the same compound?
The value was 9.44 log2.

What about the “Sart3 transcript Avg (log2)” value (HFD + compound 2) of the same compound?
The value was 4.81 log2.

What about the “Sbk1 transcript Avg (log2)” value (HFD + compound 2) of the same compound?
The value was 4.33 log2.

And the “Sec11c transcript Avg (log2)” value (HFD + compound 2)?
Its value is 3.53 log2.

And the “Senp1 transcript Avg (log2)” value (HFD + compound 2)?
The value was 3.87 log2.

And the “Serpina7 transcript Avg (log2)” value (HFD + compound 2)?
Its value is 4.57 log2.

And the “Serpine1 transcript Avg (log2)” value (HFD + compound 2)?
The value was 2.19 log2.

And the “Slc16a1 transcript Avg (log2)” value (HFD + compound 2)?
The value was 2.98 log2.

What about the “Slc17a8 transcript Avg (log2)” value (HFD + compound 2) of the same compound?
Its value is 2.05 log2.

What about the “Slc39a8 transcript Avg (log2)” value (HFD + compound 2) of the same compound?
Its value is 3.52 log2.

What about the “Slc40a1 transcript Avg (log2)” value (HFD + compound 2) of the same compound?
Its value is 3.94 log2.

And the “Slc46a3 transcript Avg (log2)” value (HFD + compound 2)?
The value was 4.69 log2.

And the “Spon2 transcript Avg (log2)” value (HFD + compound 2)?
The value was 1.99 log2.

And the “Sqle transcript Avg (log2)” value (HFD-F + compound 2)?
The value was 1.02 log2.

And the “Stfa3 transcript Avg (log2)” value (HFD-F + compound 2)?
Its value is 0 log2.

What about the “Taok3 transcript Avg (log2)” value (HFD-F + compound 2) of the same compound?
Its value is 6.27 log2.

And the “Tk1 transcript Avg (log2)” value (HFD-F + compound 2)?
Its value is 5.13 log2.

And the “Tmx1 transcript Avg (log2)” value (HFD-F + compound 2)?
The value was 5.44 log2.

What about the “Tnf transcript Avg (log2)” value (HFD-F + compound 2) of the same compound?
The value was 0.14 log2.

And the “Tnfrsf23 transcript Avg (log2)” value (HFD-F + compound 2)?
The value was 0.63 log2.

What about the “Tnnc1 transcript Avg (log2)” value (HFD-F + compound 2) of the same compound?
Its value is 1.54 log2.

What about the “Tsku transcript Avg (log2)” value (HFD-F + compound 2) of the same compound?
Its value is 4.72 log2.

What about the “Ubqln2 transcript Avg (log2)” value (HFD-F + compound 2) of the same compound?
The value was 2.22 log2.
